Data taken from US9339458B2, “Use of vaginal insulin sensitizing agents” (ITF RESEARCH PHARMA, S.L.U., priority 2009, dated 2016).

Assays:
[1] = tested on: non-insulin dependent model for polycystic ovary syndrome (PCOS) induced by dehydroepiandrosterone (DHEA) in rats; experiment: Concentration of testosterone in plasma, DHEA-induced PCOS model in rats; assay type: in vivo, Sprague-Dawley rats
Experimental: (§1) The study objective was to assess the effect of metformin in a non-insulin dependent model for polycystic ovary syndrome (PCOS) induced by dehydroepiandrosterone (DHEA) in rats.
(§2) The formulations to be tested were: • Gels with Metformin at a concentration of 2 mg/mL (FT-147), 20 mg/mL (FT-148) and 200 mg/mL (FT-149). • Gel without Metformin (Placebo; FT-150).
(§3) Female 2-3 weeks-old Sprague-Dawley rats were used.
(§4) Four experimental groups with 8 animals each were used in the study: • Group A: Control=Placebo+DHEA • Group B: Dose 1 Trial Substance (0.016 mg/animal)+DHEA • Group C: Dose 2 Trial Substance (0.16 mg/animal)+DHEA • Group D: Dose 3 Trial Substance (1.6 mg/animal)+DHEA
Each animal's dose was calculated based on the concentration of each formulation and the administration volume: • Dose 1: formulation of 2 mg/mL with administration of 8 μl/animal=0.016 mg/animal • Dose 2: formulation of 20 mg/mL with administration of 8 μl/animal=0.16 mg/animal • Dose 3: formulation of 200 mg/mL with administration of 8 μl/animal=1.6 mg/animal […]
Plasma was obtained from each blood sample by centrifugation at 5000 g for 5 minutes, which was frozen for later assessment (quantitative determinations) of testosterone levels by rat-specific commercial immunoassay kits (EIA).
Testosterone concentrations in the plasma samples from all animals were determined at the end of the study (Day 15).

[2] = tested on: non-insulin dependent model for polycystic ovary syndrome (PCOS) induced by dehydroepiandrosterone (DHEA) in rats; experiment: Histological assessment of ovaries (no. of atretic follicles), DHEA-induced PCOS model in rats; assay type: in vivo, Sprague-Dawley rats
Experimental: as §1, §2, §3, §4
Each animal's dose was calculated based on the concentration of each formulation and the administration volume: • Dose 1: formulation of 2 mg/mL with administration of 8 μl/animal=0.016 mg/animal • Dose 2: formulation of 20 mg/mL with administration of 8 μl/animal=0.16 mg/animal • Dose 3: formulation of 200 mg/mL with administration of 8 μl/animal=1.6 mg/animal
The trial substance (doses of 0.016, 0.16 and 1.6 mg/animal) and the control substance were administered intravaginally as an aqueous gel at a volume of 8 μl/animal.
The DHEA solution was prepared in a sesame seed oil prior to administration and was injected subcutaneously in a skin fold in the posterior thoracic area (dorsal) at a volume of 0.2 mL. […]

CN(C)C(=N)NC(=N)N [metformin, N,N-dimethylimidodicarbonimidic diamide]
Testosterone plasma levels versus control group ([1]; high dose, intravaginal): very significant reduction
Plasma levels of testosterone ([1]; vaginal administration): significantly decreases
Number of atretic follicles versus control group ([2]; intermediate dose, intravaginal): significant reduction
Number of atretic follicles in the polycystic ovaries ([2]; vaginal administration): a decrease
